Laboratory results from patent US6455556B2, “Crystal modifications of 1-(2,6-difluorobenzyl)-1H-1,2,3-triazole-4-carboxamide” (Novartis AG, priority 1997, dated 2002).

Assay: dissolution rate in water and gastric fluid
Assay type: physicochemical
Conditions: compared with modification A or A′

## NC(=O)c1cn(Cc2c(F)cccc2F)nn1 [modification B, 1-(2,6-difluorobenzyl)-1H-1,2,3-triazole-4-carboxamide]
Gastric fluid
  dissolution rate in gastric fluid: substantially faster
water
  dissolution rate in water: substantially faster
